Experimental data taken from patent publication US11993599B2, “Therapeutic compounds” (Genentech, Inc., priority 2021, dated 2024).

What was measured:
Type in all cases: cell-based
BRG1 = target: T1, BRG1 (Homo sapiens, UniProt P51532); assay: Immunofluorescence assay for BRG1 degradation in SW1573 cells; conditions: 20 hours incubation; for DC50: immunofluorescence mean nuclear signal, read-out: BRG1 IF Degradation IC50; for Dmax: SW1573, 20 h, normalized to a known degrader control, read-out: BRG1 IF Degradation Sinf (%)
T1 construct: either BRM primary antibody (Cell signaling Cat #11966) or BRG primary antibody (Abcam, ab 110641); endogenous in cells; host or cells: SW1573
Method in brief: (§1)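 SW1573 cells were treated with compound for 20 h, fixed, permeabilized and immunostained for BRM or BRG1 with a Hoechst nuclear counterstain. Mean nuclear signal intensity per cell was quantified by high-content imaging, normalized to a known degrader control, and dose-response curves were fit with a floating maximum to derive Dmax.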

BRM [1] = target: T2, BRM (Homo sapiens, UniProt P51531); assay: Immunofluorescence assay for BRM degradation in SW1573 cells; set-up: treated overnight at 4° C. with either BRM primary antibody (Cell signaling Cat #11966) or BRG primary antibody; endogenous in cells; host or cells: SW1573; conditions: 20 hours incubation; for DC50: immunofluorescence mean nuclear signal, read-out: BRM IF Degradation IC50; for BRM IF Degradation Sinf (%): normalized to a known degrader control
Method in brief: as §1

BRM [2] = target: T2, BRM; assay: HiBIT nanoluciferase complementation screen for BRM degraders; conditions: 18 hours, BRM-HiBIT KI Hela cells, luminescence normalized: DMSO only = 0%, no cells = −100%; for Median HiBiT activity 1 μM: compound 1 μM; for Median HiBiT activity 10 μM: compound 10 μM
Text: Example B-1: HiBIT Nanoluciferase Complementation Screen for BRM Degraders
To assess BRM degradation, compounds were screened for their effect of BRM levels using the HiBIT nanoluciferase complementation strategy developed at Promega. In brief, a HELA cell line that was genetically modified via CRISPR/CAS9 was used to fuse the HiBIT sequence at the 3′ end of BRM (BRM-HiBIT KI Hela). BRM protein levels were then detected using the Nano-Glo HiBIT lytic detection reagent (Promega).
The screened compounds were plated into a white 384-well plate at 10 μM and 1 μM in 25 nL DMSO using an Echo dispenser (Labcyte). BRM-HiBIT KI Hela cells were seeded in the compound plate at 5000 cell per well at 25 μl in DMEM growth media (containing 10% FBS, 1% Glutamax (GIBCO cat #31053-028), lx Penicillin-Streptomycin (ROCHE, cat #1107444001), 4.5 g/L D-Glucose, and no phenol red). After incubation with compounds for 18 hours at 37° C., cell viability was assessed by the addition of 5 μl Cell Titer-Fluor reagent (Promega). After 30 s of mixing on an orbital shaker, and 30 minutes incubation at 37° C., fluorescence was measured with an INFINITE F500 (Tecan) (380-400 nm excitation, 505 nm emission). Next, to assess BRM HiBIT levels, 30 μl of Nano-Glo HiBIT lytic detection reagent (Promega) containing 1:50 Nano-Glo HiBIT lytic substrate and 1:100 LgBIT protein per ml of lytic buffer was added. After shaking on an orbital shaker at 350 rpm for 10 minutes, luminescence was measured on the INFINITE F500 (Tecan). To assess compound effects, luminescence signal was normalized with the mean of wells treated with DMSO only set to 0% and the mean of wells containing no cells set to −100%. Note that, in Table 4, the “Compound Number” corresponds to that used in Table 1.

T1 sequence (P51532 whole entry): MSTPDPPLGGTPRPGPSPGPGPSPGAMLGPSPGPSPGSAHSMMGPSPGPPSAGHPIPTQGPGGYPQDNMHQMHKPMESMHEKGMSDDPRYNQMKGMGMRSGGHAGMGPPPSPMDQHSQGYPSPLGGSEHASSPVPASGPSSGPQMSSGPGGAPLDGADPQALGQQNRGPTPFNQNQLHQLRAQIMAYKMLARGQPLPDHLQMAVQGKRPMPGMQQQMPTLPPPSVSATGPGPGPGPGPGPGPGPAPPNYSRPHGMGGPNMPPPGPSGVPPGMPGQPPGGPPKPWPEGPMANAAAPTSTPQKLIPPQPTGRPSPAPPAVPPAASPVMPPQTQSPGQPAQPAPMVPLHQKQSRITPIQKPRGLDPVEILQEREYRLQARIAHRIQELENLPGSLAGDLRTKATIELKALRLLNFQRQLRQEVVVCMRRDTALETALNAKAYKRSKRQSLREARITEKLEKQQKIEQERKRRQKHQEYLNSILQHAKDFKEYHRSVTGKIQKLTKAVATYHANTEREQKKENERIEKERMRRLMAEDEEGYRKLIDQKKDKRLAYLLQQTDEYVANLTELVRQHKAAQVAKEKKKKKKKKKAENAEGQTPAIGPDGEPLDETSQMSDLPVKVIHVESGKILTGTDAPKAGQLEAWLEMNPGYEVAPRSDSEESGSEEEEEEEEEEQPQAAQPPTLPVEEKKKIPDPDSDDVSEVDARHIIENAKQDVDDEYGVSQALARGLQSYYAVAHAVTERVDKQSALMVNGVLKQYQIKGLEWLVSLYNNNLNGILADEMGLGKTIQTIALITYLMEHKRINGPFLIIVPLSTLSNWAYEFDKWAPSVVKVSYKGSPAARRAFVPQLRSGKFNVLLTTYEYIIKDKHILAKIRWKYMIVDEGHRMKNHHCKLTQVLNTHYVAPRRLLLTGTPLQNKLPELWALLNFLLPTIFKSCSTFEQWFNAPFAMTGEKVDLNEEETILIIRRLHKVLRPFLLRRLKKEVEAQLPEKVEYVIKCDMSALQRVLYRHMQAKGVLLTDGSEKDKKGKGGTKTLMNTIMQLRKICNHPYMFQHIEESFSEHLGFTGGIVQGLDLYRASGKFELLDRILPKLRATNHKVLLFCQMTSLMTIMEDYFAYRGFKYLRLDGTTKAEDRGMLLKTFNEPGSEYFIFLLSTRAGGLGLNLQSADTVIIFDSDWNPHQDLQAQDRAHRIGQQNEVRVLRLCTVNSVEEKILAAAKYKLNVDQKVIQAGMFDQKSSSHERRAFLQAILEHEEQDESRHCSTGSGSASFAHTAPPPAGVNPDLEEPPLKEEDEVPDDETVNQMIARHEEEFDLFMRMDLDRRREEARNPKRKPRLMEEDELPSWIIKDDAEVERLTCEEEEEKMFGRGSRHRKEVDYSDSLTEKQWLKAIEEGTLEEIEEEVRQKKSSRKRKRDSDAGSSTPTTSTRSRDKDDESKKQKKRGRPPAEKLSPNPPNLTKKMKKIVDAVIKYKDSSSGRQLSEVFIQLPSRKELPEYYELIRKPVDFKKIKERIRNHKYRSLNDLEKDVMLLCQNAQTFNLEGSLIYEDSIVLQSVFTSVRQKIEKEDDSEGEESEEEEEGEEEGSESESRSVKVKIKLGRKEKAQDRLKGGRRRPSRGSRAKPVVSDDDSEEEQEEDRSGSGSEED
T2 sequence (P51531 whole entry): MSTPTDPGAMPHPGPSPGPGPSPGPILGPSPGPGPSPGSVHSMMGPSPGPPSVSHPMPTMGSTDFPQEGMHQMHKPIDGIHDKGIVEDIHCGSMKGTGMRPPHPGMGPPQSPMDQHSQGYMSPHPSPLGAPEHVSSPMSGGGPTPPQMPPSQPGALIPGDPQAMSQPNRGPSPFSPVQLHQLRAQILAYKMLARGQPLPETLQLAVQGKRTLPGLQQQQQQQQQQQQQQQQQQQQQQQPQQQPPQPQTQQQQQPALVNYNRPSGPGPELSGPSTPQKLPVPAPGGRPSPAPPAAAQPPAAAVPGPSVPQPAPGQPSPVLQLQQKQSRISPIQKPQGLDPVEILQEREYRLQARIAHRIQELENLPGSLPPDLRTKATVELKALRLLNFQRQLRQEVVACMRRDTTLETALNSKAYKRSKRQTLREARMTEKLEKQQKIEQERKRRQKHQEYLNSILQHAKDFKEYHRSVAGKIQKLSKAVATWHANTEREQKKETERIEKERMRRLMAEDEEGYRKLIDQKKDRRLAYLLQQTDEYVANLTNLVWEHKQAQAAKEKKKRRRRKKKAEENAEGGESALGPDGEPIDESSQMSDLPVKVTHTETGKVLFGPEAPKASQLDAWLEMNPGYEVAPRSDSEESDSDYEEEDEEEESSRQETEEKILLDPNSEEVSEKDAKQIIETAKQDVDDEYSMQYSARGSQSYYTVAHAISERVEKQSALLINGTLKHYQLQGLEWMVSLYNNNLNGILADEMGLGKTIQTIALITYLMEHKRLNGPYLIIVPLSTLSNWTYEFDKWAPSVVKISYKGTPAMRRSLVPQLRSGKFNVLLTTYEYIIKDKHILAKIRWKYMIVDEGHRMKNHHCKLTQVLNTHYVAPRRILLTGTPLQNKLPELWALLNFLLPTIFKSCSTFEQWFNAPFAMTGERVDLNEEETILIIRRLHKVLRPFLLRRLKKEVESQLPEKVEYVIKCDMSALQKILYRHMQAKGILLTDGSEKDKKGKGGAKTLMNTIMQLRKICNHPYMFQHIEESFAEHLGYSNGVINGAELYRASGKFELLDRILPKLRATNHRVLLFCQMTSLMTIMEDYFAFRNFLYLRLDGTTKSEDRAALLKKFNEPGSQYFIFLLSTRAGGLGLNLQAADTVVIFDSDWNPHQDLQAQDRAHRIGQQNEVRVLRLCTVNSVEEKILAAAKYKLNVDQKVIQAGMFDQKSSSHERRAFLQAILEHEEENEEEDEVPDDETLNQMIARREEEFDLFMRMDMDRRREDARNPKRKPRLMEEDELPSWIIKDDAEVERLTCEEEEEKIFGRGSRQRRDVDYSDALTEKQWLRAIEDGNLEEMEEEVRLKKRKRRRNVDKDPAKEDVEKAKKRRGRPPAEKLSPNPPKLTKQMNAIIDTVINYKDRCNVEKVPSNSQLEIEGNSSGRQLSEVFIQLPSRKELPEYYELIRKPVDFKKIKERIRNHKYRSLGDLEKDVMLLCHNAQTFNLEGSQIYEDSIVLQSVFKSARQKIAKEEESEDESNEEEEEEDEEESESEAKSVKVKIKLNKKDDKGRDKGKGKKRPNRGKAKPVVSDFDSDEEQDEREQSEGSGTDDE

SMILES | DC50 (BRG1) [nM] | DC50 (BRM [1]) [nM] | BRM IF Degradation Sinf (%) (BRM [1]) | Median HiBiT activity 1 μM (BRM [2]) [%] | Median HiBiT activity 10 μM (BRM [2]) [%] | Dmax (BRG1) [%]
NCC#Cc1cc(N2C3CCC2CN(c2cc(-c4ccccc4O)nnc2N)C3)ccn1 [Compound 24, 2-(6-amino-5-(8-(2-(3-aminoprop-1-yn-1-yl)pyridin-4-yl)-3,8-diazabicyclo[3.2.1]octan-3-yl)pyridazin-3-yl)phenol] | > 100 | 10 to 100 | E (E indicates −30%-−70%) | −27.1137 | −43.5174 | 
Nc1nnc(-c2ccccc2O)cc1N1CC2CCC(C1)N2c1ccnc(C#CC2CCCNC2)c1 (centres unmarked) [Compound 8, 2-(6-amino-5-(8-(2-(piperidin-3-ylethynyl)pyridin-4-yl)-3,8-diazabicyclo[3.2.1]octan-3-yl)pyridazin-3-yl)phenol] | > 100 | 10 to 100 | E (E indicates −30%-−70%) | −51.6794 | −23.8415 | 
Nc1nnc(-c2ccccc2O)cc1N1CC2CCC(C1)N2c1ccnc(C#CCN2CCCC2)c1 [Compound 2, 2-(6-amino-5-(8-(2-(3-(pyrrolidin-1-yl)prop-1-yn-1-yl)pyridin-4-yl)-3,8-diazabicyclo[3.2.1]octan-3-yl)pyridazin-3-yl)phenol] | < 10 | < 10 | E (E indicates −30%-−70%) | −73.6048 | −28.0898 | 30 to 70
Nc1nnc(-c2ccccc2O)cc1N1CC2CCC(C1)N2c1ccnc(C#CCN2CCOCC2)c1 [Compound 9, 2-(6-amino-5-(8-(2-(3-morpholinoprop-1-yn-1-yl)pyridin-4-yl)-3,8-diazabicyclo[3.2.1]octan-3-yl)pyridazin-3-yl)phenol] | < 10 | 10 to 100 | E (E indicates −30%-−70%) | −50.6553 | −33.5251 | 0 to 30
Nc1nnc(-c2ccccc2O)cc1N1CC2CCC(C1)N2c1ccnc(C#CC2CCCN2)c1 (centres unmarked) [Compound 14, 2-(6-amino-5-(8-(2-(pyrrolidin-2-ylethynyl)pyridin-4-yl)-3,8-diazabicyclo[3.2.1]octan-3-yl)pyridazin-3-yl)phenol] | 10 to 100 | < 10 | E (E indicates −30%-−70%) | −42.9269 | −50.5501 | 0 to 30
Nc1nnc(-c2ccccc2O)cc1N1CC2CCC(C1)N2c1ccnc(C#CC2CNC2)c1 [Compound 6, 2-(6-amino-5-(8-(2-(azetidin-3-ylethynyl)pyridin-4-yl)-3,8-diazabicyclo[3.2.1]octan-3-yl)pyridazin-3-yl)phenol] | > 100 | 10 to 100 | E (E indicates −30%-−70%) | −61.1458 | −67.7912 | 0 to 30
Nc1nnc(-c2ccccc2O)cc1N1CC2CCC(C1)N2c1ccnc(C#CCC2CCNC2)c1 (centres unmarked) [Compound 34, 2-(6-amino-5-(8-(2-(3-(pyrrolidin-3-yl)prop-1-yn-1-yl)pyridin-4-yl)-3,8-diazabicyclo[3.2.1]octan-3-yl)pyridazin-3-yl)phenol] |  | > 100 |  | −7.217 | −29.4355 | 
Nc1nnc(-c2ccccc2O)cc1N1CC2CCC(C1)N2c1ccnc(C#CCN2CCCC(CO)CC2)c1 (centres unmarked) [Compound 215, 2-[6-amino-5-[8-[2-[3-[4-(hydroxymethyl)azepan-1-yl]prop-1-ynyl]-4-pyridyl]-3,8-diazabicyclo[3.2.1]octan-3-yl]pyridazin-3-yl]phenol] | 10 to 100 | < 10 | F (F indicates −71%-−120%) |  |  | 71 to 120
Oc1ccccc1-c1cc2c(nn1)NC[C@@H]1CN(c3ccnc(C#CCN4CCCCCC4)c3)CCN21 (single isomer, unassigned) [Compound 253] | < 10 | < 10 | F (F indicates −71%-−120%) |  |  | 71 to 120
CC1CN(CC#Cc2cc(N3C4CCC3CN(c3cc(-c5ccccc5O)nnc3N)C4)ccn2)CCC(F)(F)C1 (centres unmarked) [Compound 212, 2-[6-amino-5-[8-[2-[3-(5,5-difluoro-3-methyl-azepan-1-yl)prop-1-ynyl]-4-pyridyl]-3,8-diazabicyclo[3.2.1]octan-3-yl]pyridazin-3-yl]phenol] | < 10 | < 10 | F (F indicates −71%-−120%) |  |  | 71 to 120
COC(=O)C1CN(CC#Cc2cc(N3C4CCC3CN(c3cc(-c5ccccc5O)nnc3N)C4)ccn2)C1 [Compound 225] | < 10 | 10 to 100 | E (E indicates −30%-−70%) |  |  | 0 to 30
Nc1nnc(-c2ccccc2O)cc1N1CC2CCC(C1)N2c1ccnc(C#CCN2CC3CCC2C3)c1 (centres unmarked) [Compound 141, 2-[6-amino-5-[8-[2-[3-(2-azabicyclo[2.2.1]heptan-2-yl)prop-1-ynyl]-4-pyridyl]-3,8-diazabicyclo[3.2.1]octan-3-yl]pyridazin-3-yl]phenol] | < 10 | < 10 | E (E indicates −30%-−70%) |  |  | 30 to 70
CC1CCN(CC#Cc2cc(N3C4CCC3CN(c3cc(-c5ccccc5O)nnc3N)C4)ccn2)CC1 [Compound 138, 2-[6-amino-5-[8-[2-[3-(4-methyl-1-piperidyl)prop-1-ynyl]-4-pyridyl]-3,8-diazabicyclo[3.2.1]octan-3-yl]pyridazin-3-yl]phenol] | < 10 | 10 to 100 | E (E indicates −30%-−70%) |  |  | 30 to 70
N#CC1CCCN(CC#Cc2cc(N3C4CCC3CN(c3cc(-c5ccccc5O)nnc3N)C4)ccn2)C1 (centres unmarked) [Compound 120, 1-[3-[4-[3-[3-amino-6-(2-hydroxyphenyl)pyridazin-4-yl]-3,8-diazabicyclo[3.2.1]octan-8-yl]-2-pyridyl]prop-2-ynyl]piperidine-3-carbonitrile] | 10 to 100 | 10 to 100 | E (E indicates −30%-−70%) |  |  | 30 to 70
Nc1nnc(-c2ccccc2O)cc1N1CC2CCC(C1)N2c1ccnc(C#CCN2CC3(C2)CC3(F)F)c1 [Compound 151, 2-[6-amino-5-[8-[2-[3-(2,2-difluoro-5-azaspiro[2.3]hexan-5-yl)prop-1-ynyl]-4-pyridyl]-3,8-diazabicyclo[3.2.1]octan-3-yl]pyridazin-3-yl]phenol] | < 10 | < 10 | E (E indicates −30%-−70%) |  |  | 0 to 30
Nc1nnc(-c2ccccc2O)cc1N1CC2CCC(C1)N2c1ccnc(C#CCN2CCC3CCC2CC3)c1 [Compound 218, 2-[6-amino-5-[8-[2-[3-(2-azabicyclo[3.2.2]nonan-2-yl)prop-1-ynyl]-4-pyridyl]-3,8-diazabicyclo[3.2.1]octan-3-yl]pyridazin-3-yl]henol] | < 10 | < 10 | F (F indicates −71%-−120%) |  |  | 30 to 70
Nc1nnc(-c2ccccc2O)cc1N1CC2CCC(C1)N2c1ccnc(C#CCN2CCC3CNCC32)c1 (centres unmarked) [Compound 146, 2-[5-[8-[2-[3-(3,3a,4,5,6,6a-hexahydro-2H-pyrrolo[3,4-b]pyrrol-1-yl)prop-1-ynyl]-4-pyridyl]-3,8-diazabicyclo[3.2.1]octan-3-yl]-6-amino-pyridazin-3-yl]phenol] | > 100 | > 100 | E (E indicates −30%-−70%) |  |  | 30 to 70
